pIC50: −log10 of the molar value. ≈ marks a conversion by molar mass, not a printed value. Calls of active or inactive are those of the source. The rule behind the calls is not given here.
How the values were obtained:
Homo sapiens [1] = organism: Homo sapiens; experiment: Selectivity ratio of IC50 for inhibition of C-terminal His-tagged human recombinant full length HDAC3 (1 to 428 residues)/N-terminal GST-tagged human recombinant NCOR2 (395 to 489 residues) expressed in baculovirus-infected Sf9 cells to IC50 for inhibition of C-terminal 6XHis-tagged human recombinant full length HDAC2 (1 to 488 residues) expressed in baculovirus-infected Sf9 cells
[2] = molecular target: Histone deacetylase 3/Nuclear receptor corepressor 2 (HDAC3/NCoR2) (Homo sapiens, UniProt O15379); experiment: Inhibition of C-terminal His-tagged human recombinant full length HDAC3 (1 to 428 residues)/N-terminal GST-tagged human recombinant NCOR2 (395 to 489 residues) expressed in baculovirus-infected Sf9 cells assessed as reduction in 7-amino-4-methylcoumarin release using fluorogenic HDAC substrate 3 measured every 5 mins by fluorescence based analysis
Chain of Histone deacetylase 3/Nuclear receptor corepressor 2 (HDAC3/NCoR2) (O15379 whole entry, the tested form may be a part): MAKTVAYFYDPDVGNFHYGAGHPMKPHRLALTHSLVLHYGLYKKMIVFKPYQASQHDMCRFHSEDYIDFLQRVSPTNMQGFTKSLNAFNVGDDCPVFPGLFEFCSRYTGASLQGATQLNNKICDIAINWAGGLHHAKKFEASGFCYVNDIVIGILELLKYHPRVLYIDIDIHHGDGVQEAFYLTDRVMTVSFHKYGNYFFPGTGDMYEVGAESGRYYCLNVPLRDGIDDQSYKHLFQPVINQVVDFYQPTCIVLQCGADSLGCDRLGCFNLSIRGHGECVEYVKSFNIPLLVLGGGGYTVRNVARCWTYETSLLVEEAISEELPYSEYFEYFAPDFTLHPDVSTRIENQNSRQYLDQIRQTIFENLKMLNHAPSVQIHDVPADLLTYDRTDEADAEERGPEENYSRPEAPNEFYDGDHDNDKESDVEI
Chain of Histone deacetylase 3/Nuclear receptor corepressor 2 (HDAC3/NCoR2) (Q9Y618 whole entry, further chain, the tested form may be a part): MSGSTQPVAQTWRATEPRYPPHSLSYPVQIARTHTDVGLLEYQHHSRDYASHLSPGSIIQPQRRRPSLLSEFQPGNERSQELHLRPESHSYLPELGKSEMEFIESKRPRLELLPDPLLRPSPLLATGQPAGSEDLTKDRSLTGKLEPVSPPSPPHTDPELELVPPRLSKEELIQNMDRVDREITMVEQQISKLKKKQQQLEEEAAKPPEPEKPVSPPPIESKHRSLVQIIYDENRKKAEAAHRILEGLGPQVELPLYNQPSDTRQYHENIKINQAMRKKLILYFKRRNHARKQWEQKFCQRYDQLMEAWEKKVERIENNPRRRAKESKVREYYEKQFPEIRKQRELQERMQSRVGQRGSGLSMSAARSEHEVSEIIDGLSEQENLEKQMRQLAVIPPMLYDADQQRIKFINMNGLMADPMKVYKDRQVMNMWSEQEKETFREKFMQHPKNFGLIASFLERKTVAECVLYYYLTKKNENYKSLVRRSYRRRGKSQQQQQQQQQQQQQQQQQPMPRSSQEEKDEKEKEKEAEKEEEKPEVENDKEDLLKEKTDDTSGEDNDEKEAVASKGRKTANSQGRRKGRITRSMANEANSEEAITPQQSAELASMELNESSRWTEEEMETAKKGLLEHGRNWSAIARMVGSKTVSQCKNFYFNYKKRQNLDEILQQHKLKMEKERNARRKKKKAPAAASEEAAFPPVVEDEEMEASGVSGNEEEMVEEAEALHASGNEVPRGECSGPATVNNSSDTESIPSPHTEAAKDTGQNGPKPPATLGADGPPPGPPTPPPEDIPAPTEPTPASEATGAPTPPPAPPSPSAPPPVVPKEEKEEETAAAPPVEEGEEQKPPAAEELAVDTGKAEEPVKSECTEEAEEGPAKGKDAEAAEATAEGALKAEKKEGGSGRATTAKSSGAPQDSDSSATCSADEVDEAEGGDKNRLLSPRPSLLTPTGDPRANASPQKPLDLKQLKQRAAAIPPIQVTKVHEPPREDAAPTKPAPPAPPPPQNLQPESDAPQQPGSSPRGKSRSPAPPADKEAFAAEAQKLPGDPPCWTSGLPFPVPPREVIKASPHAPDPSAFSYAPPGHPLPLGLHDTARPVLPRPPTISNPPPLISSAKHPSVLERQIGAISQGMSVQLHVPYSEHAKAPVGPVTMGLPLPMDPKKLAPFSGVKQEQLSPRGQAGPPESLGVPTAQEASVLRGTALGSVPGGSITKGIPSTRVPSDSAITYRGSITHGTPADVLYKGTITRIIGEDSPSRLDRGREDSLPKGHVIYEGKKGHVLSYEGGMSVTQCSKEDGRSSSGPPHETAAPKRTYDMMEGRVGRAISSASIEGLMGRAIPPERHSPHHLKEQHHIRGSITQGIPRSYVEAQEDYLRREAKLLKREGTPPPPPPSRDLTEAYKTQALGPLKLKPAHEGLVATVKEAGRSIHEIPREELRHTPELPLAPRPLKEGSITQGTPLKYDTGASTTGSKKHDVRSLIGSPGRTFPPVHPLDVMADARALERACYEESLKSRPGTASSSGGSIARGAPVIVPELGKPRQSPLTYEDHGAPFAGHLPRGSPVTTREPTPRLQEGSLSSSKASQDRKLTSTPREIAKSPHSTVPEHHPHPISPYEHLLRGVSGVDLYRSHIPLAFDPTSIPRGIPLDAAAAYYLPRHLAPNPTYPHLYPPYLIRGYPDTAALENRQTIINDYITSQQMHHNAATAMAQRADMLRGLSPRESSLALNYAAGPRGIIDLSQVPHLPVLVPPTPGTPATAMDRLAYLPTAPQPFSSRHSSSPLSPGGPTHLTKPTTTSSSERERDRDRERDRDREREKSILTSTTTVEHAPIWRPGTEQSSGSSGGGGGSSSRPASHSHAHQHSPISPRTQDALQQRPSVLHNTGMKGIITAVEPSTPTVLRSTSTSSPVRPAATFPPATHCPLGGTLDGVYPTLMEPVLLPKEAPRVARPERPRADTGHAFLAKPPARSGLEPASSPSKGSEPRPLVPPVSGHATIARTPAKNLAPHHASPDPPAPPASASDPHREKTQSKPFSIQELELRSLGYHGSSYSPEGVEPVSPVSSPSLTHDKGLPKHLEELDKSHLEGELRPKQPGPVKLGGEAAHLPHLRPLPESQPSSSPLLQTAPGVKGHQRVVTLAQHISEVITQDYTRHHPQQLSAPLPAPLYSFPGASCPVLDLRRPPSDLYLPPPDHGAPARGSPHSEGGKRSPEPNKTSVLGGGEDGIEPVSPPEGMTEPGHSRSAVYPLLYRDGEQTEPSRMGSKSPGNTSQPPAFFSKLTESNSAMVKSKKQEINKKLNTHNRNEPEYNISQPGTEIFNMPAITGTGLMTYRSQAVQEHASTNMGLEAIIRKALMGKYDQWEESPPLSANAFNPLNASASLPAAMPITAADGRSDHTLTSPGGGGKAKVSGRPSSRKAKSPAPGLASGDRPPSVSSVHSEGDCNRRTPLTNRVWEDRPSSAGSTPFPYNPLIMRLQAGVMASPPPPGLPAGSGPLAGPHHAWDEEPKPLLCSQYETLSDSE

[3] = Downregulation of HDAC1 gene expression in human MCF7 cells at 3 uM incubated for 24 hrs by whole transcriptome analysis relative to control; assay type: functional
Homo sapiens [4] = organism: Homo sapiens; experiment: Selectivity ratio of IC50 for inhibition of N-terminal GST-tagged human HDAC7 (518 to end residues) expressed in baculovirus-infected Sf9 cells to IC50 for inhibition of C-terminal FLAG/His-tagged human recombinant HDAC1 (1 to 482 residues) expressed in baculovirus-infected Sf9 cells
Histone deacetylase 5 = Histone deacetylase 5 (Homo sapiens, UniProt Q9UQL6); experiment: Inhibition of N-terminal GST-tagged human recombinant full length HDAC5 expressed in baculovirus-infected Sf9 cells assessed as reduction in 7-amino-4-methylcoumarin release measured every 5 mins by fluorescence based analysis
Chain of Histone deacetylase 5 (Q9UQL6 whole entry): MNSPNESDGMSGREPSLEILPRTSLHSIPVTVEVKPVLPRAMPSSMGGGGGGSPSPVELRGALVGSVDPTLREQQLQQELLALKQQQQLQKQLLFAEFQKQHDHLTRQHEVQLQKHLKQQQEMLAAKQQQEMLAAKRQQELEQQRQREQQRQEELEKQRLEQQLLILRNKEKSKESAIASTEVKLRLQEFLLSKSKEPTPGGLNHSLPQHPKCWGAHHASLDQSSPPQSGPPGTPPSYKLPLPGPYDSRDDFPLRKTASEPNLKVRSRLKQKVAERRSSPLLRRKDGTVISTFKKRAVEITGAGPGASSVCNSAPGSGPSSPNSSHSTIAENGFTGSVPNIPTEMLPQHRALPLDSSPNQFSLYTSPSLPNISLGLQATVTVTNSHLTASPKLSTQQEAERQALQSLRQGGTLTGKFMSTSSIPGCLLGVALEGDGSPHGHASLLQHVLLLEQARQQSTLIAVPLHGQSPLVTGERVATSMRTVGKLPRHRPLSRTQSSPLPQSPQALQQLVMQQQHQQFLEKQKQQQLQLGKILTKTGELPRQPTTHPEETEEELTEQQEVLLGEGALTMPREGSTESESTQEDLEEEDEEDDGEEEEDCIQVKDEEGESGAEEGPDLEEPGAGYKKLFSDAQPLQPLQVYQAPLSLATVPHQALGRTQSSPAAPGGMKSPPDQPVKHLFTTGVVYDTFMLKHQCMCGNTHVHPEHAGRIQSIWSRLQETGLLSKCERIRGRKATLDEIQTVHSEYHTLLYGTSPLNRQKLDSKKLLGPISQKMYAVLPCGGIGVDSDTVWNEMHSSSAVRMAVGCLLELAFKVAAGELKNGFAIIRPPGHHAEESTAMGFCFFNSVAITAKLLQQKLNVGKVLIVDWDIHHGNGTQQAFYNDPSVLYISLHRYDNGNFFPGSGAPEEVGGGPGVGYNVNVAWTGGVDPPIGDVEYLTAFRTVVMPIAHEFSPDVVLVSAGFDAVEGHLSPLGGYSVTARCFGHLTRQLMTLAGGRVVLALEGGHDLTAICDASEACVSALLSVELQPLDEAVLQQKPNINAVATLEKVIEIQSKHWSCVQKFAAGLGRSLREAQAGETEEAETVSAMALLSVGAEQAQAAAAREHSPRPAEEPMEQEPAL

A549 = experiment: Antiproliferative activity against human A549 cells assessed as reduction in cell viability incubated for 48 hrs by SRB assay; assay type: functional, cell-based; details: A549, 48 h
MCF7 [5] = experiment: Downregulation of SIRT2 gene expression in human MCF7 cells at 3 uM incubated for 24 hrs by whole transcriptome analysis; assay type: functional, cell-based
[6] = Kinetic aqueous solubility of the compound in 2% DMSO/phosphate buffered saline at 200 uM incubated for 90 mins by UV absorbance based analysis; assay type: physicochemical; details: read-out: Kinetic_solubility
Cytochrome P450 3A4 = Cytochrome P450 3A4 (Homo sapiens, UniProt P08684); experiment: Inhibition of human CYP3A4 expressed in insect supersomes assessed as reduction in […] formation using midazolam as substrate measured after 30 mins in presence of NADPH by LC-MS/MS analysis; assay type: ADME
Chain of Cytochrome P450 3A4 (P08684 whole entry, the tested form may be a part): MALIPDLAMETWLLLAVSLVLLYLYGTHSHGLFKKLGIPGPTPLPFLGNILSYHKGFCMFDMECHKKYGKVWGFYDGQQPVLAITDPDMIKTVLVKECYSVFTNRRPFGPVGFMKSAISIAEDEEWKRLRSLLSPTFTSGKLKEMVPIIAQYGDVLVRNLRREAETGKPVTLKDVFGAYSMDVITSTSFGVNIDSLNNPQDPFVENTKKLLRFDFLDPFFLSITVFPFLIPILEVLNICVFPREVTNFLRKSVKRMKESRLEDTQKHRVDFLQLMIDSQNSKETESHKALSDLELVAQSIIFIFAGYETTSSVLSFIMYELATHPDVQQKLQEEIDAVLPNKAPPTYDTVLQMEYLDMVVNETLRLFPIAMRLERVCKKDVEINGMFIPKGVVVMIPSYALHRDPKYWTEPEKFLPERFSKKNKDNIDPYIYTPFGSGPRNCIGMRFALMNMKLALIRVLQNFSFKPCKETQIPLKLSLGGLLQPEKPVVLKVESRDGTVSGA

Homo sapiens [7] = organism: Homo sapiens; experiment: Selectivity ratio of IC50 for inhibition of C-terminal His-tagged human HDAC9 (604 to 1066 residues) expressed in baculovirus-infected Sf9 cells to IC50 for inhibition of C-terminal 6XHis-tagged human recombinant full length HDAC2 (1 to 488 residues) expressed in baculovirus-infected Sf9 cells
Homo sapiens [8] = organism: Homo sapiens; experiment: Selectivity ratio of IC50 for inhibition of C-terminal His-tagged human HDAC9 (604 to 1066 residues) expressed in baculovirus-infected Sf9 cells to IC50 for inhibition of C-terminal FLAG/His-tagged human recombinant HDAC1 (1 to 482 residues) expressed in baculovirus-infected Sf9 cells
MCF7 [9] = experiment: Induction of cell cycle arrest in human MCF7 cells assessed downregulation of CDK4 gene expression at 3 uM incubated for 24 hrs by whole transcriptome analysis; assay type: functional, cell-based
MCF7 [10] = experiment: Induction of cell cycle arrest in human MCF7 cells assessed as accumulation at subG1 phase at 1 uM incubated for 24 to 72 hrs by PI staining based flow cytometric analysis; assay type: functional; details: time 24-72 hrs
Homo sapiens [11] = organism: Homo sapiens; experiment: (§1) Selectivity ratio of IC50 for inhibition of N-terminal GST-tagged/C-terminal His-tagged human recombinant HDAC4 (627 to 1084 residues) expressed in baculovirus-infected Sf9 cells to IC50 for inhibition of C-terminal 6XHis-tagged human recombinant full length HDAC2 (1 to 488 residues) expressed in baculovirus-infected Sf9 cells
MCF7 [12] = experiment: Induction of apoptosis in human MCF7 cells assessed as downregulation of c-Myc protein expression at 1 to 3 uM measured after 48 hrs western blot analysis; assay type: functional, cell-based; details: dose 1-3 µM
[13] = Metabolic stability of the compound in CD-1 mouse liver microsomes assessed as parent compound remaining at 1 uM measured after 60 mins in absence of NADPH by LC-MS/MS analysis; assay type: ADME, Microsome; details: read-out: Stabilty
MCF7 [14] = experiment: Antiproliferative activity against human MCF7 cells assessed as reduction in cell viability incubated for 48 hrs by SRB assay; assay type: functional, cell-based; details: MCF7, 48 h
MCF7 [15] = experiment: Induction of apoptosis in human MCF7 cells assessed as reduction in Bcl3 gene expression at 3 uM incubated for 24 hrs by whole transcriptome analysis; assay type: functional, cell-based
Homo sapiens [16] = organism: Homo sapiens; experiment: Selectivity ratio of IC50 for inhibition of N-terminal GST-tagged human HDAC7 (518 to end residues) expressed in baculovirus-infected Sf9 cells to IC50 for inhibition of C-terminal 6XHis-tagged human recombinant full length HDAC2 (1 to 488 residues) expressed in baculovirus-infected Sf9 cells
Cytochrome P450 2D6 = Cytochrome P450 2D6 (Homo sapiens, UniProt P10635); experiment: Inhibition of human CYP2D6 expressed in insect supersomes assessed as reduction in AHMC formation using AMMC as substrate measured after 40 mins in presence of NADPH by fluorescence based analysis; assay type: ADME
Chain of Cytochrome P450 2D6 (P10635 whole entry): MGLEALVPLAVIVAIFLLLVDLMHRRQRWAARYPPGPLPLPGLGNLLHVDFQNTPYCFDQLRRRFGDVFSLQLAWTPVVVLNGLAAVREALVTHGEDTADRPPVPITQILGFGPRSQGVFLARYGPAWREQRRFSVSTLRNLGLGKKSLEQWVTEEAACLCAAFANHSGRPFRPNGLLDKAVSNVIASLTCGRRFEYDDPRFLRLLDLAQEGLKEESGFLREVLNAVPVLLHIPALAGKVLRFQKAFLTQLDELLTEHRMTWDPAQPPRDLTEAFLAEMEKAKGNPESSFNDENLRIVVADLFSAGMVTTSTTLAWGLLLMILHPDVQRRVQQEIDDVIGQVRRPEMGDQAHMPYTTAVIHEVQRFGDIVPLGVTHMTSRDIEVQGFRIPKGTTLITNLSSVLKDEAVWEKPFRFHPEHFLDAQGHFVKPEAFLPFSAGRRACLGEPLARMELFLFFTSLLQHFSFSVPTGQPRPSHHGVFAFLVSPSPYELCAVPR

Homo sapiens [17] = organism: Homo sapiens; experiment: as §1, with “FLAG/His-tagged” for “6XHis-tagged”, “HDAC1” for “full length HDAC2”, “482” for “488”
[18] = Downregulation of HDAC3 gene expression in human MCF7 cells at 3 uM incubated for 24 hrs by whole transcriptome analysis relative to control; assay type: functional
MCF7 [19] = experiment: Induction of cell cycle arrest in human MCF7 cells assessed downregulation of RB1 gene expression at 3 uM incubated for 24 hrs by whole transcriptome analysis; assay type: functional, cell-based

N=C(NO)c1ccc2nc(-c3cccc(-c4cn5ccccc5n4)c3)[nH]c2c1
Ratio IC50 (Homo sapiens [1]): > 44 | pIC50 [2]: < 5.00 | fold change (FC) [3]: 3.2 | Ratio IC50 (Homo sapiens [4]): > 44 | pIC50 (Histone deacetylase 5): < 5.00 | pIC50 (A549): 6.70 | inhibition (MCF7 [5]): Active | solubility kinetic at 1.5 h, 200 µM [6]: 36.1 µM (≈ 13.3 µg/mL) | pIC50 (Cytochrome P450 3A4): 6.63 | Ratio IC50 (Homo sapiens [7]): > 44 | Ratio IC50 (Homo sapiens [8]): > 44 | Activity (MCF7 [9]): Active | Activity (MCF7 [10]): Active | Ratio IC50 (Homo sapiens [11]): > 44 | Activity (MCF7 [12]): Active | remaining at 1 h, 1 µM [13]: 94% | pIC50 (MCF7 [14]): 5.70 | Activity (MCF7 [15]): Active | Ratio IC50 (Homo sapiens [16]): > 44 | pIC50 (Cytochrome P450 2D6): < 5.00 | Ratio IC50 (Homo sapiens [17]): > 44 | fold change (FC) [18]: 2.2 | Activity (MCF7 [19]): Active
